According to PMC12739383, “Optimization of solid-state fermentation conditions for high β-galactosidase-producing lactic acid bacteria and its application in low-lactose dairy products” (Frontiers in Bioengineering and Biotechnology, 2025):
Values belong to the molecule of their own block, whether it stands above or below them.

Assays:
Format in all cases: biochemical, Lactiplantibacillus plantarum
[1] = system: T1, β-galactosidase produced by L. plantarum LP-15; test: o-nitrophenol release at […] nm, Lineweaver-Burk, […]; details: optimal conditions (pH 6.5, 42 °C); 50 mM phosphate buffer; partially purified enzyme; read-out: Value/Range
T1 construct: gene lacL; native enzyme from solid-state fermentation extract

[2] = target: T1, β-galactosidase produced by L. plantarum LP-15; test: product inhibition kinetics; details: competitive, inhibited substrate not told, partially purified enzyme, read-out: Value/Range
From the text: product inhibition kinetics on β-galactosidase produced by L. plantarum LP-15

[3] = system: T1, β-galactosidase produced by L. plantarum LP-15; test: initial rate kinetics; lactose read-out not told; details: conditions not given; partially purified enzyme; read-out: Value/Range
From the text: initial rate kinetics; lactose read-out not told on β-galactosidase produced by L. plantarum LP-15

Km [1]: 2.8 ± 0.1 mM
SMILES: O=[N+]([O-])c1ccccc1O[C@@H]1O[C@H](CO)[C@H](O)[C@H](O)[C@H]1O [ONPG, o-Nitrophenyl-β-D-galactopyranoside]

Ki [2]: 85 mM
SMILES: OC[C@H]1OC(O)[C@H](O)[C@@H](O)[C@H]1O (stereo partly drawn) [galactose]

Km [3]: 18.5 ± 0.5 mM
SMILES: OC[C@H]1O[C@@H](O[C@H]2[C@H](O)[C@@H](O)C(O)O[C@@H]2CO)[C@H](O)[C@@H](O)[C@H]1O (stereo partly drawn) [lactose]
